Source: PMC7139504, “New Arylethanolimidazole Derivatives as HO-1 Inhibitors with Cytotoxicity against MCF-7 Breast Cancer Cells” (International Journal of Molecular Sciences, 2020)
Where “and” joins values, the source holds several entries; their conditions need not be identical. Equal values may be shown once. Read-outs that look alike come from different tables or passages of the source. Values belong to the compound of their own block, whether it stands above or below them.

Tests used:
HO-1 [1] = biological target: T1, HO-1 (Rattus norvegicus, UniProt P06762); experiment: HO-1 inhibition, bilirubin formation in rat spleen microsomal fraction; type: biochemical
T1 construct: selected in order to use the most native (i.e., closest to in vivo) forms of HO-1 and HO-2; from tissue; host or cells: spleen microsomal fraction of male Sprague-Dawley rats
T1 sequence (P06762 1-289): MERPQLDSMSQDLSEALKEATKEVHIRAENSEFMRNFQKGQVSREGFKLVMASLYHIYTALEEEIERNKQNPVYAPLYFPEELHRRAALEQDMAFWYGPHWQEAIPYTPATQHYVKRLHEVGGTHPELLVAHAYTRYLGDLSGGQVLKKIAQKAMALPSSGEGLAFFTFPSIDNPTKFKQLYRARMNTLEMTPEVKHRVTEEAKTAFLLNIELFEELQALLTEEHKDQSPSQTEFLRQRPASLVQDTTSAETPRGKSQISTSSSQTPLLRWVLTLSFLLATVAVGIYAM
Description: (§1) HO-1 and HO-2 were obtained from the microsomal fractions of rat spleen and rat brain, respectively. Enzymatic activity of both isoforms was determined by measuring the bilirubin formation using the difference in absorbance at 464–530 nm, as described in the experimental section. Compounds A–C, and tin protoporphyrin (SnPP) were used as reference substances. Inhibition of enzymes activity is expressed as IC50 (μM), and results are resumed in Table 1.
The dominance of HO-1 protein in the rat spleen and of HO-2 in the rat brain has been well documented; thus, the microsomal fraction, prepared by differential centrifugation, from rat spleen and brain have been used to obtain HO-1 and HO-2. These particular microsomal preparations were selected in order to use the most native (i.e., closest to in vivo) forms of HO-1 and HO-2. Spleen and brain microsomal fractions, from Sprague–Dawley rats, were prepared following a published procedure. All experiments complied with current Italian law and met the guidelines of the Institutional Animal Care and Use Committee of MINISTRY OF HEALTH (Directorate General for Animal Health and Veterinary Medicines, Italy). Male Sprague–Dawley albino rats (150 g body weight and age 45 d) were used. Rats had free access to water, and they were maintained at room temperature with a natural photoperiod (12 h:12 h light–dark cycle). For measuring HO-1 and HO-2 activities, each rat was sacrificed and their spleen and brain were excised and weighed. A homogenate (15%, w/v) of spleens and brains pooled from four rats was prepared in ice-cold HO-homogenizing buffer (50 mM Tris buffer, pH 7.4, containing 0.25 M sucrose) using a Potter–Elvehjem homogenizing system with a Teflon pestle. The microsomal fraction of rat spleen and brain homogenate was obtained by centrifugation at 10,000× g for 20 min at 4 °C, followed by centrifugation of the supernatant at 100,000× g for 60 min at 4 °C. The 100,000× g pellet (microsomes) was resuspended in 100 mM potassium phosphate buffer, pH 7.8, containing 2 mM MgCl2 with a Potter–Elvehjem homogenizing system. Equal aliquots of the rat spleen and brain microsomal fractions were prepared, placed into microcentrifuge tubes, and stored at −80 °C for up to 2 months. Finally, the Lowry method was used to determine the protein concentration of the microsomal fraction.
Liver cytosol has been used as a source of biliverdin reductase. Rat liver was perfused through the hepatic portal vein with cold 0.9% NaCl, then it was cut and flushed with 2 × 20 mL of ice-cold PBS to remove all of the blood. Liver tissue was homogenized in three volumes of a solution containing 1.15% KCl w/v and Tris buffer 20 mM, pH 7.8 on ice. Homogenates were centrifuged at 10,000× g for 20 min at 4 °C. The supernatant was decanted and centrifuged at 100,000× g for 1 h at 4 °C to sediment the microsomes. The 100,000× g supernatant was saved and then stored in small amounts at −80 °C after its protein concentration was measured.
The measurement of bilirubin formation, using the difference in absorbance at 464–530 nm, was used to determine the HO-1 and HO-2 activities, as previously described by Ryter et al.. Reaction mixtures (500 μL) consisted of 20 mM Tris–HCl, pH 7.4, (1 mg/mL) microsomal extract, 0.5–2 mg/mL biliverdin reductase, 1 mM NADPH, 2 mM glucose 6-phosphate (G6P), 1 U G6P dehydrogenase, 25 μM hemin, and 10 μL of DMSO (or the same volume of DMSO solution of test or reference compounds to a final concentration of 100, 10, and 1 μM). Incubations were carried out for 60 min at 37 °C in a circulating water bath in the dark. One volume of chloroform was added to stop the reactions. Then, the chloroform phase was recovered, and the amount of bilirubin, which was formed has been measured with a double-beam spectrophotometer as OD464–530 nm (extinction coefficient, 40 mM/cm^−1 for bilirubin). […]

HO-2 [2] = biological target: T2, HO-2 (Rattus norvegicus, UniProt P23711); experiment: HO-2 inhibition, bilirubin formation in rat brain microsomal fraction; type: biochemical; conditions: mean ± SD of three determinations
T2 construct: selected in order to use the most native (i.e., closest to in vivo) forms of HO-1 and HO-2; from tissue; host or cells: brain microsomal fraction of male Sprague-Dawley rats
T2 sequence (P23711 1-315): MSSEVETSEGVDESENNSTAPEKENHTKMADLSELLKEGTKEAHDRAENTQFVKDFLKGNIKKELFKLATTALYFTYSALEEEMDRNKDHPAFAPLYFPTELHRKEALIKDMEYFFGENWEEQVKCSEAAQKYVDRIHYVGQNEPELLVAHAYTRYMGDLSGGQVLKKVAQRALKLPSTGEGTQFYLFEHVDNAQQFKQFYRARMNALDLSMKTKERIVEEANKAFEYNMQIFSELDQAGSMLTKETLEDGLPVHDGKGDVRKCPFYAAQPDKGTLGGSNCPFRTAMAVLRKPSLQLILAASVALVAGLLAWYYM
Description: as §1
The dominance of HO-1 protein in the rat spleen and of HO-2 in the rat brain has been well documented; thus, the microsomal fraction, prepared by differential centrifugation, from rat spleen and brain have been used to obtain HO-1 and HO-2. These particular microsomal preparations were selected in order to use the most native (i.e., closest to in vivo) forms of HO-1 and HO-2. Spleen and brain microsomal fractions, from Sprague–Dawley rats, were prepared following a published procedure. All experiments complied with current Italian law and met the guidelines of the Institutional Animal Care and Use Committee of MINISTRY OF HEALTH (Directorate General for Animal Health and Veterinary Medicines, Italy). Male Sprague–Dawley albino rats (150 g body weight and age 45 d) were used. Rats had free access to water, and they were maintained at room temperature with a natural photoperiod (12 h:12 h light–dark cycle). For measuring HO-1 and HO-2 activities, each rat was sacrificed and their spleen and brain were excised and weighed. […]
Liver cytosol has been used as a source of biliverdin reductase. […] The 100,000× g supernatant was saved and then stored in small amounts at −80 °C after its protein concentration was measured.
The measurement of bilirubin formation, using the difference in absorbance at 464–530 nm, was used to determine the HO-1 and HO-2 activities, as previously described by Ryter et al.. […] Then, the chloroform phase was recovered, and the amount of bilirubin, which was formed has been measured with a double-beam spectrophotometer as OD464–530 nm (extinction coefficient, 40 mM/cm^−1 for bilirubin). […]

HO-1 [3] = biological target: T1, HO-1; conditions: reference compounds; data taken from ref 32; read-out: IC50 (μM) ± SD HO-1; cited from earlier work
HO-2 [4] = biological target: T2, HO-2; conditions: reference compounds; data taken from ref 32; read-out: IC50 (μM) ± SD HO-2; cited from earlier work
MCF-7 cells = experiment: Sulforhodamine B (SRB) cytotoxicity assay, MCF-7; type: cell-based; conditions: Homo sapiens, MCF7, hormone-sensitive breast cancer cells, 10–100 μM, 48 h, mean ± SEM (n = 3), read-out: IC50 cytotoxicity against MCF-7
Description: (§2) Both cell lines were treated with 10–100 μM of compound 5a for 48 h. Cell survival at different concentrations was calculated compared to untreated controls. At the end of treatment, cell number was determined using the sulforhodamine B (SRB) colorimetric assay based on the measurement of cellular protein content.
(§3) MCF-7 and MDA-MB-231 cells were maintained in complete growth media (DMEM/Ham’s F12 supplemented with 10% fetal bovine serum, 2 mM L-glutamine, 100 units/mL penicillin, 100 units/mL of streptomycin, and 2.2 g/L of NaHCO3) at 37 °C in a humidified atmosphere of 5% CO2. For all procedures, cells were harvested using TrypLE Express (Life Technologies, Auckland, New Zealand).
(§4) Cells were seeded into 96-well plates and incubated for 24 h to test the cytotoxic effect of the HO inhibitor. After 24 h incubation, different concentrations of the HO inhibitor were administered for 48 h. Following the incubation, cells were fixed using 10% trichloro-acetic acid (TCA). The cytotoxicity was determined using the sulforhodamine B assay was used, as previously described, to determine the cytotoxicity of the HO-1 inhibitor. IC50 (the concentration required to decrease the cell number by 50%) was determined by non-linear regression using Graphpad prism 6 software. Treatments were performed in triplicate, and data represent the mean of three independent experiments.

MDA-MB-231 cells = experiment: Sulforhodamine B (SRB) cytotoxicity assay, MDA-MB-231; type: cell-based; conditions: hormone-resistant breast cancer cells, 10–100 μM, 48 h
Description: as §2, §3, §4

[5] = rat spleen microsomal fraction, mean ± SD of three determinations, read-out: IC50 (μM) ± SD HO-1
[6] = experimental values repeated in the docking table, read-out: IC50 exp. (μM) HO-1

- IC50 (HO-1 [1]; [6]): > 100 µM
- IC50 (HO-1 [1]; [5]): ≥ 100 µM
- melting point: 121.5 to 130 °C
Structure (SMILES): OC(Cn1ccnc1)c1ccccc1OCc1ccc(Br)cc1 (centres unmarked) [Compound 5b, 1-[2-[(4-bromobenzyl)oxy]phenyl]-2-(1H-imidazol-1-yl)ethanol]

- IC50 (HO-1 [1]; [6]): > 100 µM
- IC50 (HO-1 [1]; [5]): > 100 µM
Structure (SMILES): Clc1ccc(COC(Cn2ccnc2)c2cccc(Br)c2)cc1 (centres unmarked) [Compound 6a, 1-(2-(3-bromophenyl)-2-((4-chlorobenzyl)oxy)ethyl)-1H-imidazole]

- IC50 (HO-1 [1]; [6]): 41 ± 1.5 µM
- IC50 (HO-1 [1]; [5]): 41 ± 1.5 µM
- melting point: 120.1 to 123 °C
Structure (SMILES): OC(Cn1ccnc1)c1ccc(OCc2cccc(Br)c2)cc1 (centres unmarked) [Compound 5c, 1-[4-[(3-bromobenzyl)oxy]phenyl]-2-(1H-imidazol-1-yl)ethanol]

- IC50 (HO-1 [1]; [6]): 9 ± 2.2 µM
- IC50 (HO-1 [1]; [5]): 9 ± 2.2 µM
- IC50 (HO-2 [2]): 15.8 ± 1.6 µM
- melting point: 120 to 126 °C
Structure (SMILES): OC(Cn1ccnc1)c1ccc(OCc2ccccc2Br)cc1 (centres unmarked) [Compound 5d, 1-[4-[(2-bromobenzyl)oxy]phenyl]-2-(1H-imidazol-1-yl)ethanol]

- IC50 (HO-1 [1]; [6]): 0.9 ± 0.02 µM
- IC50 (HO-1 [1]; [5]): 0.9 ± 0.02 µM
- IC50 (HO-2 [2]): 54 µM and 53.6 µM
- melting point: 123 to 126 °C
Structure (SMILES): OC(Cn1ccnc1)c1cccc(OCc2ccc(Br)cc2)c1 (centres unmarked) [Compound 5a, 1-[3-[(4-bromobenzyl)oxy]phenyl]-2-(1H-imidazol-1-yl)ethanol]
- IC50 (MCF-7 cells): 47.4 ± 6.8 µM
- cytotoxicity against MDA-MB-231 (MDA-MB-231 cells): no cytotoxicity

- IC50 (HO-1 [1]; [6]): 44 ± 1.8 µM
- IC50 (HO-1 [1]; [5]): 44 ± 1.8 µM
- melting point: 132 to 140 °C
Structure (SMILES): OC(Cn1ccnc1)c1cccc(OCc2ccccc2Br)c1 (centres unmarked) [Compound 5f, 1-[3-[(2-bromobenzyl)oxy]phenyl]-2-(1H-imidazol-1-yl)ethanol]

- IC50 (HO-1 [1]; [6]): 66 ± 3.2 µM
- IC50 (HO-1 [1]; [5]): 66 ± 3.2 µM
Structure (SMILES): Clc1ccc(Cl)c(COC(Cn2ccnc2)c2cccc(Br)c2)c1 (centres unmarked) [Compound 6b, 1-(2-(3-bromophenyl)-2-((2,5-dichlorobenzyl)oxy)ethyl)-1H-imidazole]

- IC50 (HO-1 [1]; [6]): 46 ± 1.9 µM
- IC50 (HO-1 [1]; [5]): 46 ± 1.9 µM
- melting point: 93.5 to 99.4 °C
Structure (SMILES): OC(Cn1ccnc1)c1cccc(OCc2cccc(Br)c2)c1 (centres unmarked) [Compound 5e, 1-[3-[(3-bromobenzyl)oxy]phenyl]-2-(1H-imidazol-1-yl)ethanol]

The remaining lines, values behind:

Structure (SMILES): O=C(Cn1ccnc1)c1cccc(Br)c1 [Compound 4g]
- IC50 (HO-1 [1]; [5]): 38.2 ± 1.8 µM

Structure (SMILES): O=C(Cn1ccnc1)c1cccc(-c2ccccc2)c1 [Compound 4h]
- IC50 (HO-1 [1]; [5]): 19.9 ± 2.5 µM

Structure (SMILES): C=Cc1c2[n-]c(c1C)/C=c1\[n-]/c(c(C)c1C=C)=C\c1[n-]c(c(CCC(=O)O)c1C)/C=c1\[n-]c(c(C)c1CCC(=O)O)=C2.[Sn+4] [SnPP, tin protoporphyrin, reference compound]
- IC50 (HO-1 [1]; [5]): 0.58 ± 0.03 µM
- IC50 (HO-2 [2]): 0.36 ± 0.01 µM

Structure (SMILES): OC(Cn1ccnc1)c1cccc(-c2ccccc2)c1 (centres unmarked) [B]
- IC50 (HO-1 [3]): 0.95 µM
- IC50 (HO-2 [4]): > 100 µM

Structure (SMILES): OC(Cn1ccnc1)c1ccc(OCc2ccc(Br)cc2)cc1 (centres unmarked) [C]
- IC50 (HO-2 [4]): > 100 µM

Structure (SMILES): c1ccc(-c2cccc(CCn3ccnc3)c2)cc1 [Compound 2c, 1-(2-((1,1’-biphenyl)-3-yl)ethyl)-1H-imidazole]
- IC50 (HO-1 [1]; [6]): 46.8 ± 1.8 µM
- IC50 (HO-1 [1]; [5]): 46.8 ± 1.8 µM

Structure (SMILES): Brc1cccc(CCn2ccnc2)c1 [Compound 2a, 1-(3-bromophenethyl)-1H-imidazole]
- IC50 (HO-1 [1]; [6]): 100 µM
- IC50 (HO-1 [1]; [5]): 100 ± 5.6 µM

Structure (SMILES): Brc1ccc(COc2ccc(CCn3ccnc3)cc2)cc1 [Compound 2b, 1-(4-((4-bromobenzyl)oxy)phenethyl)-1H-imidazole]
- IC50 (HO-1 [1]; [6]): 62.9 ± 3.2 µM
- IC50 (HO-1 [1]; [5]): 62.9 ± 3.2 µM
- melting point: 147.5 to 149.7 °C

Structure (SMILES): O=C(Cn1ccnc1)c1ccc(OCc2ccc(Br)cc2)cc1 [Compound 4i]
- IC50 (HO-1 [1]; [5]): 55.46 ± 0.05 µM
